According to patent publication US6495576B2, “Aminal diones as potassium channel openers” (Abbott Laboratories, priority 2001, dated 2002):
Where two headings read alike, the source gives them in different places.

Experiments:
[1] = test system: primary cultured guinea-pig urinary bladder (GPB) cells; assay: Membrane hyperpolarization (MHP) assay, DiBAC(4)3 fluorescence on FLIPR; format: cell-based; conditions: for Maximal Response (%P1075): maximal steady-state hyperpolarization, normalized to response with 10 μM P1075 (100%); for EC50: Cavia porcellus, concentration eliciting 50% of the maximal response of the test sample
Experimental: Compounds were evaluated for potassium channel opening activity using primary cultured guinea-pig urinary bladder (GPB) cells.
For the preparation of urinary bladder smooth muscle cells, urinary bladders were removed from male guinea-pigs (Hartley, Charles River, Wilmington, Mass.) weighing 300-400 g and placed in ice-cold Ca^2+-free Krebs solution (composition, mM: KCl, 2.7, KH2PO4, 1.5; NaCl, 75, Na2HPO4, 9.6; Na2HPO4. 7H2O, 8; MgSO4, 2; glucose, 5; HEPES, 10; pH 7.4). Cells were isolated by enzymatic dissociation as previously described with minor modifications (Klockner and Isenberg, Pflugers Arch. (1985), 405, 329-339), hereby incorporated by reference. The bladder was cut into small sections and incubated in 5 mL of the Kreb's solution containing 1 mg/mL collagenase (Sigma, St. Louis, Mo.) and 0.2 mg/mL pronase (Calbiochem, La Jolla, Calif.) with continuous stirring in a cell incubator for 30 minutes. The mixture was then centrifuged at 1300×g for 5 minutes, and the pellet resuspended in Dulbecco's PBS (GIBCO, Gaithersburg, Md.) and recentrifuged to remove residual enzyme. The cell pellet was resuspended in 5 mL growth media (composition: Dulbecco's modified Eagle's medium supplemented with 10% fetal bovine serum, 100 units/mL penicillin, 100 units/mL streptomycin and […] amphotericin B) and further dissociated by pipetting the suspension through a flame-polished Pasteur pipette and passing it through a polypropylene mesh membrane (Spectrum, Houston, Tex.). The cell density was adjusted to 100,000 cells/mL by resuspension in growth media Cells were plated in clear-bottomed black 96-well plates (Packard) for membrane potential studies at a density of 20,000 cells/well and maintained in a cell incubator with 90% air: 10% CO2 until confluent. Cells were confirmed to be of smooth muscle type by cytoskeletal staining using a monoclonal mouse anti human-α-smooth muscle actin (Biomeda, Foster City, Calif.).
Functional activity at potassium channels was measured by evaluating changes in membrane potential using the bis-oxonol dye DiBAC(4)3 (Molecular Probes) in a 96-well cell-based kinetic assay system, Fluorescent Imaging Plate Reader (FLIPR) (K. S. Schroeder et al., J. Biomed. Screen., v. 1 pp. 75-81 (1996)), hereby incorporated by reference. DiBAC(4)3 is an anionic potentiometric probe which partitions between cells and extracellular solution in a membrane potential-dependent manner. With increasing membrane potential (for example, K^+ depolarization), the probe further partitions into the cell; this is measured as an increase in fluorescence due to dye interaction with intracellular lipids and proteins. Conversely, decreasing membrane potential (hyperpolarization by potassium channel openers) evokes a decrease in fluorescence.
Confluent guinea-pig urinary bladder cells cultured in black clear-bottomed 96-well plates were rinsed twice with […] assay buffer (composition, mM: HEPES, 20; NaCl, 120; KCl, 2; CaCl2, 2, MgCl2, 1, glucose, 5; pH 7.4 at 25° C.) containing 5 μM DiBAC(4)3 and incubated with […] of the buffer in a cell incubator for 30 minutes at 37° C. to ensure dye distribution across the membrane. After recording the baseline fluorescence for 5 minutes, the reference or test compounds, prepared at 10 times the concentration in the assay buffer, were added directly to the wells. Changes in fluorescence were monitored for an additional 25 minutes. Hyperpolarization responses were corrected for any background noise and were normalized to the response observed with 10 μM of the reference compound P1075 (assigned as 100%), a potent opener of smooth muscle KATP channels (Quast et al., Mol. Phanmacol., v. 43 pp. 474-481 (1993)).
Routinely, five concentrations of P1075 or test compounds (log or half-log dilutions) were evaluated and the maximal steady-state hyperpolarization values (expressed as % relative to P1075) plotted as a function of concentration. […]

[2] = test system: Landrace pig bladder strips; assay: Functional potassium channel opening activity in isolated, field-stimulated bladder strips; conditions: for Index: ED50 for P1075 divided by ED50 for test agonist in a given tissue, averaged; for EC50: amount causing 50% of the agent's maximal response, field stimulation 0.05 Hz, 0.5 ms, 20 volts, read-out: ED50 (the source's name); for Emax / Efficacy (%P1075): maximal efficacy on stimulated twitch, relative to P1075
Experimental: Compound were evaluated for functional potassium channel opening activity using tissue strips obtained from Landrace pig bladders.
Landrace pig bladders were obtained from female Landrace pigs of 9-30 kg. Landrace pig were euthanized with an intraperitoneal injection of pentobarbital solution, Somlethal ®, J. A. Webster Inc. Sterling Mass. The entire bladder was removed and immediately placed into Krebs Ringer bicarbonate solution (composition, mM: NaCl, 120; NaHCO3, 20; dextrose, 11; KCl, 4.7; CaCl2, 2.5; MgSO4, 1.5; KH2PO4, 1.2; K2EDTA, 0.01, equilibrated with 5% CO2/95% O2 pH 7.4 at 37° C.). Propranolol (0.004 mM) was included in all of the assays to block β-adrenoceptors. The trigonal and dome portions were discarded. Strips 3-5 mm wide and 20 mm long were prepared from the remaining tissue cut in a circular fashion. The mucosal layer was removed. One end was fixed to a stationary glass rod and the other to a Grass FT03 transducer at a basal preload of 1.0 gram. Two parallel platinum electrodes were included in the stationary glass rod to provide field stimulation of 0.05 Hz, 0.5 milli-seconds at 20 volts. This low frequency stimulation produced a stable twitch response of 100-500 centigrams. Tissues were allowed to equilibrate for at least 60 minutes and primed with 80 mM KCl. A control concentration response curve (cumulative) was generated for each tissue using the potassium channel opener P1075 as the control agonist. […] After a 60 minute rinsing period, a concentration response curve (cumulative) was generated for the test agonist in the same fashion as that used for control agonist P1075. The maximal efficacy of each compound (expressed as % relative to P1075) is reported. The amount of agent necessary to cause 50% of the agent's maximal response (ED50) was calculated using “ALLFIT” (DeLean et al., Am. J. Physiol., 235, E97 (1980)), hereby incorporated by reference. Agonist potencies were also expressed as an index relative to P1075. The index was calculated by dividing the ED50 for P1075 by the ED50 for the test agonist in a given tissue. Each tissue was used for only one test agonist, and the indices obtained from each tissue were averaged to provide an average index of potency.

`CC(C)(C)C(NC(=O)c1cccc(Cl)c1)Nc1c(Nc2cccnc2Cl)c(=O)c1=O` (stereo not drawn) [Example 95, 3-Chloro-N-[1-({2-[(2-chloropyridin-3-yl)amino]-3,4-dioxo-1-cyclobuten-1-yl}amino)-2,2-dimethylpropyl]benzamide] gave a melting point of 213 to 214 °C.
`CC(C)(C)C(NC(=O)c1ccc(I)cc1)NS(=O)(=O)Nc1cccnc1` (stereo not drawn) [Example 34, N-(2,2-Dimethyl-1-{[(3-pyridinylamino)sulfonyl]amino}propyl)-4-iodobenzamide] showed a melting point of 177 to 178 °C.
In the case of `Cc1ccc(C(=O)NC(Nc2c(Nc3cccnc3)c(=O)c2=O)C(C)(C)C)cc1` (stereo not drawn) [Example 1, N-(1-{[3,4-Dioxo-2-(3-pyridinylamino)-1-cyclobuten-1-yl]amino}-2,2-dimethylpropyl)-4-methylbenzamide], the “Maximal Response (%P1075)” value [1] is reported as 91 %P1075 and the Index [2] is reported as 0.008.
For `CC(C)(C)C(NC(=O)c1cc(F)cc(F)c1)Nc1c(Nc2cccnc2Cl)c(=O)c1=O` (stereo not drawn) [Example 110A, N-(1-{[3,4-Dioxo-2-(2-chloro3-pyridinylamino)-1-cyclobuten-1-yl]amino}-2,2-dimethylpropyl)-3,5-difluorobenzamide], the melting point was 215 to 217 °C.
Molecule `COc1ncccc1Nc1c(NC(NC(=O)c2cc(F)cc(F)c2)C(C)(C)C)c(=O)c1=O` (stereo not drawn) [Example 82, 3,5-Difluoro-N-[1-({2-[(2-methoxypyridin-3-yl)amino]-3,4-dioxo-1-cyclobuten-1-yl}amino)-2,2-dimethylpropyl]benzamide] has a melting point of 221 to 223 °C.
In the case of `CC(C)(Cc1ccccc1)C(NC(=O)c1ccc(Cl)cc1)Nc1c(Nc2cccnc2)c(=O)c1=O` (stereo not drawn) [Example 18, 4-Chloro-N-(-1-{[3,4-dioxo-2-(3-pyridinylamino)-1-cyclobuten-1-yl]amino}-2,2-dimethyl-3-phenylpropyl)benzamide], the EC50 [1] is reported as 510 nM, the “Maximal Response (%P1075)” value [1] is reported as 97 %P1075 and the Index [2] is reported as 0.055. The EC50 ([2]; Sus scrofa) was 17000 nM and the Emax ([2]; Sus scrofa) was 62%.
In the case of `CC(C)(C)C(NC(=O)c1ccc(Cl)cc1)Nc1c(Nc2cccnc2)c(=O)c1=O` (stereo not drawn) [Example 2, 4-Chloro-N-(1-{[3,4-dioxo-2-(3-pyridinylamino)-1-cyclobuten-1-yl]amino}-2,2-dimethylpropyl)benzamide], the “Maximal Response (%P1075)” value [1] is reported as 108 %P1075 and the Index [2] is reported as 0.047.
In the case of `CCC(CC)(CCC#N)C(NC(=O)c1ccc(Cl)cc1)Nc1c(Nc2cccnc2)c(=O)c1=O` (stereo not drawn) [Example 19, 4-Chloro-N-(4-cyano-1-{[3,4-dioxo-2-(3-pyridinylamino)-1-cyclobuten-1-yl]amino}-2,2-diethylbutyl)benzamide], the “Maximal Response (%P1075)” value [1] is reported as under 20 %P1075.
In the case of `C=CCC(C)(C)C(NC(=O)c1ccc(Cl)cc1)Nc1c(Nc2cccnc2)c(=O)c1=O` (stereo not drawn) [Example 17, 4-Chloro-N-(-1-{[3,4-dioxo-2-(3-pyridinylamino)-1-cyclobuten-1-yl]amino}-2,2-dimethyl-4-pentenyl)benzamide], the “Maximal Response (%P1075)” value [1] is reported as 96 %P1075 and the Index [2] is reported as 0.028.
For `Cc1cccc(C(=O)NC(Nc2c(Nc3cccnc3)c(=O)c2=O)C(C)(C)Cc2ccccc2)c1` (stereo not drawn) [Example 60, N-(1-{[3,4-Dioxo-2-(3-pyridinylamino)-1-cyclobuten-1-yl]amino}-2,2-dimethyl-3-phenylpropyl)-3-methylbenzamide], the EC50 [1] was 93 nM, the “Maximal Response (%P1075)” value [1] was 83 %P1075 and the Index [2] was 0.87. For the same molecule, the EC50 ([2]; Sus scrofa) was 680 nM and the Emax ([2]; Sus scrofa) was 88%.
Work on `CC(C)(Cc1ccccc1)C(NC(=O)c1cccc(Cl)c1)Nc1c(Nc2cccnc2)c(=O)c1=O` (stereo not drawn) [Example 59, 3-Chloro-N-(1-{[3,4-dioxo-2-(3-pyridinylamino)-1-cyclobuten-1-yl]amino}-2,2-dimethyl-3-phenylpropyl)benzamide] yielded an Index [2] of 0.062, an EC50 ([2]; Sus scrofa) of 1700 nM and an Emax ([2]; Sus scrofa) of 57%.
For `CC(C)(C)C(NC(=O)c1cccc(Cl)c1)Nc1c(Nc2cccnc2)c(=O)c1=O` (single isomer, unassigned; (+)) [Example 56, (+) 3-Chloro-N-(1-{[3.4-dioxo-2-(3-pyridinylamino)-1-cyclobuten-1-yl]amino}-2,2-dimethylpropyl)benzamide], the Index [2] was 0.028, the EC50 [2] was 2200 nM and the “Efficacy (%P1075)” value [2] was 94 %P1075.
For `CC(C)(C)C(NC(=O)c1cccc(F)c1)Nc1c(Nc2cccnc2)c(=O)c1=O` (stereo not drawn) [Example 7, N-(1-{[3,4-Dioxo-2-(3-pyridinylamino)-1-cyclobuten-1-yl]amino}-2,2-dimethylpropyl)-3-fluorobenzamide], the Index [2] was 0.025.
In the case of `CC(C)(C)C(NC(=O)CCc1ccccc1)Nc1c(Nc2cccnc2Cl)c(=O)c1=O` (stereo not drawn) [Example 87, N-[1-({2-[(2-chloropyridin-3-yl)amino]-3,4-dioxo-1-cyclobuten-1-yl}amino)-2,2-dimethylpropy1]-3-phenylpropanamide], the Index [2] is reported as 0.039, the EC50 [2] is reported as 1900 nM and the “Efficacy (%P1075)” value [2] is reported as 96 %P1075.
With `C=CCOCC(CC)(COCC=C)C(NC(=O)c1ccc(Cl)cc1)Nc1c(Nc2cccnc2)c(=O)c1=O` (stereo not drawn) [Example 20, N-(2,2-Bis[(allyloxy)methyl]-1-{[3,4-dioxo-2-(3-pyridinylamino)-1-cyclobuten-1-yl]amino}butyl)-4-chlorobenzamide] the “Maximal Response (%P1075)” value [1] was 98 %P1075.
`CC(C)(C)C(NC(=O)CCc1ccccc1)Nc1c(Nc2cccnc2)c(=O)c1=O` (stereo not drawn) [Example 36, N-(1-{[3,4-Dioxo-2-(3-pyridinylamino)-1-cyclobuten-1-yl]amino}-2,2-dimethylpropyl)-3-phenylpropionamide] showed an Index [2] of 0.063.
For `CC(C)(C)C(NC(=O)c1cc(F)cc(F)c1)Nc1c(Nc2cccnc2)c(=O)c1=O` (single isomer, unassigned; (+)) [Example 49, (+)N-(1-{[3.4-Dioxo-2-(3-pyridinylamino)-1-cyclobuten-1-yl]amino}-2,2-dimethylpropyl)-3,5-difluorobenzamide], the Index [2] was 0.071, the EC50 [2] was 1200 nM and the “Efficacy (%P1075)” value [2] was 100 %P1075.
